Measured values: patent US20200085789A1, “USE OF A PROTEASOME INHIBITOR FOR THE TREATMENT OF CENTRAL NERVOUS SYSTEM (CNS) CANCERS” (Celgene International II Sàrl, priority 2017, published 2020)

Assay: Adverse events and dose-limiting toxicity (NCI-CTCAE v 4.03), MRZ ± BEV in recurrent grade IV malignant glioma patients
Assay type: in vivo, human
Description: An adverse event (AE) is any noxious, unintended, or untoward medical occurrence that may appear or worsen in a subject during the course of a study. […] Any worsening (i.e., any clinically significant adverse change in the frequency or intensity of a pre-existing condition) should be considered an AE.
The severity/intensity of AEs will be graded based upon the subject's symptoms according to the current active minor version of the Common Terminology Criteria for Adverse Events ( ).

[1] = treated with MRZ 0.8 mg/m^2 + BEV (N = 27)

SMILES: C[C@@]12OC(=O)[C@]1([C@@H](O)[C@@H]1C=CCCC1)NC(=O)[C@@H]2CCCl [MRZ, marizomib]
- Fall: patients, worst Grade 2 (Part 1 N = 36, Part 2 N = 30): 1
- Fatigue: patients, Total (Part 1 N = 36, Part 2 N = 30): 20
- Fatigue: patients, worst Grade 1 (Part 1 N = 36, Part 2 N = 30): 8
- Fatigue: patients, worst Grade 2 (Part 1 N = 36, Part 2 N = 30): 11
- Fatigue: patients, worst Grade 3 (Part 1 N = 36, Part 2 N = 30): 2
- Hallucination: patients, Total (Part 1 N = 36, Part 2 N = 30): 12
- Hallucination: patients, worst Grade 1 (Part 1 N = 36, Part 2 N = 30): 6
- Hallucination: patients, worst Grade 2 (Part 1 N = 36, Part 2 N = 30): 4
- Hallucination: patients, worst Grade 3 (Part 1 N = 36, Part 2 N = 30): 1
- Hallucination: patients, worst Grade 4 (Part 1 N = 36, Part 2 N = 30): 1
- Headache: patients, Total (Part 1 N = 36, Part 2 N = 30): 14
- Headache: patients, worst Grade 1 (Part 1 N = 36, Part 2 N = 30): 10
- Headache: patients, worst Grade 2 (Part 1 N = 36, Part 2 N = 30): 3
- Headache: patients, worst Grade 3 (Part 1 N = 36, Part 2 N = 30): 1
- Hyperglycemia: patients, Total (Part 1 N = 36, Part 2 N = 30): 7
- Hyperglycemia: patients, worst Grade 1 (Part 1 N = 36, Part 2 N = 30): 2
- Hyperglycemia: patients, worst Grade 2 (Part 1 N = 36, Part 2 N = 30): 4
- Hyperglycemia: patients, worst Grade 3 (Part 1 N = 36, Part 2 N = 30): 1−
- Hypertension: patients, Total (Part 1 N = 36, Part 2 N = 30): 4
- Hypertension: patients, worst Grade 1 (Part 1 N = 36, Part 2 N = 30): 1
- Hypertension: patients, worst Grade 2 (Part 1 N = 36, Part 2 N = 30): 1
- Hypertension: patients, worst Grade 3 (Part 1 N = 36, Part 2 N = 30): 2
- Hypokalemia: patients, Total (Part 1 N = 36, Part 2 N = 30): 9
- Hypokalemia: patients, worst Grade 1 (Part 1 N = 36, Part 2 N = 30): 7
- Hypokalemia: patients, worst Grade 2 (Part 1 N = 36, Part 2 N = 30): 2
- Infusion Site Reaction (includes edema, pain, phlebitis, redness): patients, Total (Part 1 N = 36, Part 2 N = 30): 5
- Infusion Site Reaction: patients, worst Grade 1 (Part 1 N = 36, Part 2 N = 30): 3
- Infusion Site Reaction: patients, worst Grade 2 (Part 1 N = 36, Part 2 N = 30): 2
- Insomnia: patients, Total (Part 1 N = 36, Part 2 N = 30): 1.
- Insomnia: patients, worst Grade 1 (Part 1 N = 36, Part 2 N = 30): 7
- Insomnia: patients, worst Grade 2 (Part 1 N = 36, Part 2 N = 30): 5
- Insomnia: patients, worst Grade 3 (Part 1 N = 36, Part 2 N = 30): 1
- Nausea: patients, Total (Part 1 N = 36, Part 2 N = 30): 11
- Nausea: patients, worst Grade 1 (Part 1 N = 36, Part 2 N = 30): 7
- Nausea: patients, worst Grade 2 (Part 1 N = 36, Part 2 N = 30): 2
- Nausea: patients, worst Grade 3 (Part 1 N = 36, Part 2 N = 30): 2
- Platelet Count Decreased: patients, Total (Part 1 N = 36, Part 2 N = 30): 7
- Platelet Count Decreased: patients, worst Grade 1 (Part 1 N = 36, Part 2 N = 30): 7
- Vomiting: patients, Total (Part 1 N = 36, Part 2 N = 30): 10
- Vomiting: patients, worst Grade 1 (Part 1 N = 36, Part 2 N = 30): 8
- Vomiting: patients, worst Grade 3 (Part 1 N = 36, Part 2 N = 30): 2
- marizomib-related adverse events ≥3: confusional state (Phase 1): 3
- marizomib-related adverse events ≥3: headache (Phase 1): 3
- patients with marizomib-related serious adverse events (Phase 1): Four
- Grade 4 serious adverse event (hallucination, MRZ-related) (Phase 2 monotherapy): one
- treatment-related Grade ≥3 AEs in two or more patients (Phase 2 monotherapy): fatigue, hallucination, lethargy
- Grade 4 serious adverse event (hallucination, MRZ-related) (Phase 2 monotherapy, listed as marizomib): One
- Anaemia: # Patients, AE related to the labelled drug(s) (pts on MRZ+BEV): 6
- Anxiety: # Patients, AE related to the labelled drug(s) (pts on MRZ+BEV): 0
- Aphasia: # Patients, AE related to the labelled drug(s) (pts on MRZ+BEV): 0
- Appendicitis Perforated: # Patients, AE related to the labelled drug(s) (pts on MRZ+BEV): 0
- Asthenia: # Patients, AE related to the labelled drug(s) (pts on MRZ+BEV): 0
- Ataxia: # Patients, AE related to the labelled drug(s) (pts on MRZ+BEV): 6
- Confusional State: # Patients, AE related to the labelled drug(s) (pts on MRZ+BEV): 6
- Constipation: # Patients, AE related to the labelled drug(s) (pts on MRZ+BEV): 4
- Convulsion: # Patients, AE related to the labelled drug(s) (pts on MRZ+BEV): 0
- Delusion: # Patients, AE related to the labelled drug(s) (pts on MRZ+BEV): 1
- Depressed Level of Consciousness: # Patients, AE related to the labelled drug(s) (pts on MRZ+BEV): 0
- Diarrhoea: # Patients, AE related to the labelled drug(s) (pts on MRZ+BEV): 9
- Dizziness: # Patients, AE related to the labelled drug(s) (pts on MRZ+BEV): 8
- Dysarthria: # Patients, AE related to the labelled drug(s) (pts on MRZ+BEV): 1
- Dysphagia: # Patients, AE related to the labelled drug(s) (pts on MRZ+BEV): 0
- Dysphonia: # Patients, AE related to the labelled drug(s) (pts on MRZ+BEV): 0
- Dyspnoea: # Patients, AE related to the labelled drug(s) (pts on MRZ+BEV): 0
- Ear Infection: # Patients, AE related to the labelled drug(s) (pts on MRZ+BEV): 0
- Embolism: # Patients, AE related to the labelled drug(s) (pts on MRZ+BEV): 0
- Epistaxis: # Patients, AE related to the labelled drug(s) (pts on MRZ+BEV): 0
- Falls: # Patients, AE related to the labelled drug(s) (pts on MRZ+BEV): 3
- Fatigue: # Patients, AE related to the labelled drug(s) (pts on MRZ+BEV): 1
- Fracture of Femur: # Patients, AE related to the labelled drug(s) (pts on MRZ+BEV): 0
- Haemorrhage Intracranial: # Patients, AE related to the labelled drug(s) (pts on MRZ+BEV): 0
- Hallucination: # Patients, AE related to the labelled drug(s) (pts on MRZ+BEV): 11
- Headache: # Patients, AE related to the labelled drug(s) (pts on MRZ+BEV): 5
- Hemiparesis: # Patients, AE related to the labelled drug(s) (pts on MRZ+BEV): 0
- Hyperglycemia: # Patients, AE related to the labelled drug(s) (pts on MRZ+BEV): 0
- Hypertension: # Patients, AE related to the labelled drug(s) (pts on MRZ+BEV): 0
- Hypokalemia: # Patients, AE related to the labelled drug(s) (pts on MRZ+BEV): 0
- Hyponatremia: # Patients, AE related to the labelled drug(s) (pts on MRZ+BEV): 1
- Hypotension: # Patients, AE related to the labelled drug(s) (pts on MRZ+BEV): 0
- Infusion Site Pain: # Patients, AE related to the labelled drug(s) (pts on MRZ+BEV): 6
- Insomnia: # Patients, AE related to the labelled drug(s) (pts on MRZ+BEV): 1
- Lymphocyte Count Decreased: # Patients, AE related to the labelled drug(s) (pts on MRZ+BEV): 0
- Muscular Weakness: # Patients, AE related to the labelled drug(s) (pts on MRZ+BEV): 2
- Nausea: # Patients, AE related to the labelled drug(s) (pts on MRZ+BEV): 19
- Optic Nerve Disorder: # Patients, AE related to the labelled drug(s) (pts on MRZ+BEV): 0
- Pyramidal Tract Syndrome: # Patients, AE related to the labelled drug(s) (pts on MRZ+BEV): 0
- Tumor Metastasis: # Patients, AE related to the labelled drug(s) (pts on MRZ+BEV): 0
- Vision Blurred: # Patients, AE related to the labelled drug(s) (pts on MRZ+BEV): 3
- Vomiting: # Patients, AE related to the labelled drug(s) (pts on MRZ+BEV): 12
- time of onset of CNS adverse events (range): from the day of treatment to six days post-marizomib infusion
- Anaemia related to the labelled drug(s) [1]: (18.5%)
- Anaemia related to the labelled drug(s), patients [1]: 5
- Ataxia related to the labelled drug(s) [1]: (25.9%)
- Ataxia related to the labelled drug(s), patients [1]: 7
- Confusional state related to the labelled drug(s) [1]: (25.9%)
- Confusional state related to the labelled drug(s), patients [1]: 7
- Constipation related to the labelled drug(s) [1]: (18.5%)
- Constipation related to the labelled drug(s), patients [1]: 5
- Diarrhoea related to the labelled drug(s) [1]: (29.6%)
- Diarrhoea related to the labelled drug(s), patients [1]: 8
- Dizziness related to the labelled drug(s) [1]: (29.6%)
- Dizziness related to the labelled drug(s), patients [1]: 8
- Dysphonia related to the labelled drug(s) [1]: (3.7%)
- Dysphonia related to the labelled drug(s), patients [1]: 1
- Epistaxis related to the labelled drug(s) [1]: (0.0%)
- Epistaxis related to the labelled drug(s), patients [1]: 0
- Fall related to the labelled drug(s) [1]: (11.1%)
- Fall related to the labelled drug(s), patients [1]: 3
- Fatigue related to the labelled drug(s) [1]: (70.4%)
- Fatigue related to the labelled drug(s), patients [1]: 19
- Hallucination related to the labelled drug(s) [1]: (44.4%)
- Hallucination related to the labelled drug(s), patients [1]: 12
- Headache related to the labelled drug(s) [1]: (44.4%)
- Headache related to the labelled drug(s), patients [1]: 12
- Hypertension related to the labelled drug(s) [1]: (3.7%)
- Hypertension related to the labelled drug(s), patients [1]: 1
- Infusion site pain related to the labelled drug(s) [1]: (14.8%)
- Infusion site pain related to the labelled drug(s), patients [1]: 4
- Muscular weakness related to the labelled drug(s) [1]: (11.1%)
- Muscular weakness related to the labelled drug(s), patients [1]: 3
- Nausea related to the labelled drug(s) [1]: (63.0%)
- Nausea related to the labelled drug(s), patients [1]: 17
- Platelet count decreased related to the labelled drug(s) [1]: (7.4%)
- Platelet count decreased related to the labelled drug(s), patients [1]: 2
- Stomatitis related to the labelled drug(s) [1]: (11.1%)
- Stomatitis related to the labelled drug(s), patients [1]: 3
- Upper-airway cough syndrome related to the labelled drug(s) [1]: (0.0%)
- Upper-airway cough syndrome related to the labelled drug(s), patients [1]: 0
- Vomiting related to the labelled drug(s) [1]: (55.6%)
- Vomiting related to the labelled drug(s), patients [1]: 15
